Laboratory results published in patent US9255094B2, “Pyrido[4,3-B]indoles and methods of use” (Medivation Technologies, Inc., priority 2009, dated 2016).

What was measured:
[1] = molecular target: T1, human recombinant adrenergic α1D receptor (Homo sapiens, UniProt P25100); test: Adrenergic α1D radioligand binding assay ([3H]Prozosin); conditions: compound at 0.1 μM; 0.6 nM [3H]Prozosin; HEK-293 cells; read-out: Percent Inhibition of ligand binding, Adrenergic (0.1 μM) a1D
T1 construct: expressed in transfected cells; host or cells: human embryonic kidney (HEK-293) cells
T1 sequence (P25100 1-572): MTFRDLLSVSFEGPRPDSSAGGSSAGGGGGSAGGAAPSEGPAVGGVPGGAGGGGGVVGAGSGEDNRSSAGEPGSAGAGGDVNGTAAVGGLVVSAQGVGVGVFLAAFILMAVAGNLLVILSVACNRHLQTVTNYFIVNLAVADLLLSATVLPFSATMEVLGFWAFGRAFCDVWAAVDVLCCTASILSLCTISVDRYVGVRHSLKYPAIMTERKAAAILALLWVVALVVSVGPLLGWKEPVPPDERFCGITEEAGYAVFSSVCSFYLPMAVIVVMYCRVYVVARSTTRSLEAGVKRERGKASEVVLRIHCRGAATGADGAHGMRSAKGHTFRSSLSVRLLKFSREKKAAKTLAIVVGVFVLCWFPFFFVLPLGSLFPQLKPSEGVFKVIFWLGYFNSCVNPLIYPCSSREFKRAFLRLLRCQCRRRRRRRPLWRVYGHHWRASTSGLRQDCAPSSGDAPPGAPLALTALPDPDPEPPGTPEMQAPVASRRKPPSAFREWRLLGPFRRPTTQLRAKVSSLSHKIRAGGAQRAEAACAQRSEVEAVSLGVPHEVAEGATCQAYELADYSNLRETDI
Protocol: Compounds of invention were incubated with 0.6 nM [^3H]Prozosin for 60 min at 25° C. Non-specific binding was estimated in the presence of 10 μM phentolamine Receptor proteins were filtered and washed, the filters were then counted to determine [^3H]Prozosin specifically bound.

[2] = molecular target: T2, human recombinant adrenergic α2C receptor (Homo sapiens, UniProt P18825); test: Adrenergic α2C radioligand binding assay ([3H]MK-912); conditions: compound at 0.1 μM; 1 nM [3H]MK-912; insect Sf9 cells; read-out: Percent Inhibition of ligand binding, Adrenergic (0.1 μM) a2C
T2 construct: expressed in transfected cells; host or cells: insect Sf9 cells
T2 sequence (P18825 1-462): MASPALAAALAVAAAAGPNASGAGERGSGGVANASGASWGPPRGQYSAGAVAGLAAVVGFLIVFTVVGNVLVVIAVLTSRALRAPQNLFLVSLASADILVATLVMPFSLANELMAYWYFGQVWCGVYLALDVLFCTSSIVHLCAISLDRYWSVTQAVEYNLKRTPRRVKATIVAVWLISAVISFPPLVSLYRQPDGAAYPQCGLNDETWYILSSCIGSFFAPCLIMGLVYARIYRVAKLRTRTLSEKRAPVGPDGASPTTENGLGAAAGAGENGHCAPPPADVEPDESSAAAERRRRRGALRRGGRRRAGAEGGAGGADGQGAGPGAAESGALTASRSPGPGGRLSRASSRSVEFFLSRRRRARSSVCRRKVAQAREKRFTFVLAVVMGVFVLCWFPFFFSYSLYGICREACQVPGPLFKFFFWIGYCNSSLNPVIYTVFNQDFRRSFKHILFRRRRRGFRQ
Protocol: To evaluate in radioligand binding assays the activity of compounds of the invention, human recombinant adrenergic α2C receptor expressed in insect Sf9 cells (Uhlen S et al. J. Pharmacol. Exp. Ther. 271:1558, 1994) in a modified Tris-HCl buffer (50 mM Tris-HCl, pH 7.4, 12.5 mM MgCl2, 2 mM EDTA) is used. Compounds of the invention are incubated with 1 nM [^3H]MK-912 for 60 min at 25° C. Non-specific binding is estimated in the presence of 10 μM WB-4101. Receptor proteins are filtered and washed, the filters are then counted to determine [^3H]MK-912 specifically bound. Compounds are screened at 1 μM or lower, using 1% DMSO as vehicle. Compounds of the invention are tested in this biochemical assay and percent inhibition of specific binding is determined.

[3] = molecular target: T3, human recombinant serotonin (5-Hydroxytryptamine) 5-HT2A receptor (Homo sapiens, UniProt P28223); test: Serotonin 5-HT2A radioligand binding assay ([3H]Ketanserin); conditions: compound at 0.1 μM; 0.5 nM [3H]Ketanserin; CHO-K1 cells; read-out: Percent Inhibition of ligand binding, Serotonin (0.1 μM) 5-HT2A
T3 construct: expressed in transfected cells; host or cells: Chinese hamster ovary (CHO-K1) cells
T3 sequence (P28223 whole entry): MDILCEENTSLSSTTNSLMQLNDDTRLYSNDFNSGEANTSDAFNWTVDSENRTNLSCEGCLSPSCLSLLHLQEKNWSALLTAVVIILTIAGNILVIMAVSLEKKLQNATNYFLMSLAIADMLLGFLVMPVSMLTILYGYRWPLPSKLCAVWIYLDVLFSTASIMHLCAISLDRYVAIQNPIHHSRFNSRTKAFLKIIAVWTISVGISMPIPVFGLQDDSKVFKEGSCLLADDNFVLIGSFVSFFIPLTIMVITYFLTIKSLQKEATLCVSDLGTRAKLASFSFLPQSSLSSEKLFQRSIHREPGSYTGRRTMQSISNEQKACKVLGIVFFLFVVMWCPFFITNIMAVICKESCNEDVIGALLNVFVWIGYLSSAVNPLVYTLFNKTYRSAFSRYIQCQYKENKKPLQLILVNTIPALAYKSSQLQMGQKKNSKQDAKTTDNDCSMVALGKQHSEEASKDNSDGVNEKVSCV
Protocol: Compounds of the invention were incubated with 0.5 nM [^3H]Ketanserin for 60 min at 25° C. Non-specific binding was estimated in the presence of 1 μM Mianserin. Receptor proteins were filtered and washed, the filters were then counted to determine [^3H]Ketanserin specifically bound. Compounds were screened at 1 μM or lower, using 1% DMSO as vehicle. Biochemical assay results are presented as the percent inhibition of specific binding in Table 4.

[4] = molecular target: human recombinant histamine H1 receptor (Homo sapiens, UniProt P35367); test: Histamine H1 radioligand binding assay ([3H]Pyrilamine); conditions: compound at 0.1 μM, receptor expressed in CHO cells
human recombinant histamine H1 receptor, sequence (P35367 whole entry): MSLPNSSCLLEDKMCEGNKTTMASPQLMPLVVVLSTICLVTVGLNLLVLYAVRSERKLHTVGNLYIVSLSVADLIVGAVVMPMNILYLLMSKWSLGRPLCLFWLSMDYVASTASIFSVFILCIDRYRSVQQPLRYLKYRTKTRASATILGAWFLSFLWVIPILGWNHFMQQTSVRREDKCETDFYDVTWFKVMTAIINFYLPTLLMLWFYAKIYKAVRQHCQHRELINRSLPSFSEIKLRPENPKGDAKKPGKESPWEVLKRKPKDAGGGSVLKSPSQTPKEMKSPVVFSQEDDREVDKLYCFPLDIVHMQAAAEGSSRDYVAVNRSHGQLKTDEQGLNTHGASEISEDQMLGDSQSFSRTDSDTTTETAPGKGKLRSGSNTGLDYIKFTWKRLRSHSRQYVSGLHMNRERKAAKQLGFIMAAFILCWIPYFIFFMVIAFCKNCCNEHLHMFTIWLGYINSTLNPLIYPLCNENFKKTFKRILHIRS
In short: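 Membranes from CHO cells expressing the receptor, in 50 mM Tris-HCl pH 7.4 with 2 mM MgCl2, 100 mM NaCl and 250 mM sucrose, incubated with 1.2 nM [3H]pyrilamine for 180 min at 25° C; nonspecific binding defined with 1 μM pyrilamine.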

[5] = molecular target: human recombinant dopamine D2L receptor (Homo sapiens, UniProt P14416); test: Dopamine D2L radioligand binding assay ([3H]Spiperone); conditions: compound at 1 μM, 0.16 nM [3H]Spiperone, CHO cells, read-out: Percent Inhibition of ligand binding, Dopamine (1μM)
human recombinant dopamine D2L receptor, sequence (P14416 whole entry): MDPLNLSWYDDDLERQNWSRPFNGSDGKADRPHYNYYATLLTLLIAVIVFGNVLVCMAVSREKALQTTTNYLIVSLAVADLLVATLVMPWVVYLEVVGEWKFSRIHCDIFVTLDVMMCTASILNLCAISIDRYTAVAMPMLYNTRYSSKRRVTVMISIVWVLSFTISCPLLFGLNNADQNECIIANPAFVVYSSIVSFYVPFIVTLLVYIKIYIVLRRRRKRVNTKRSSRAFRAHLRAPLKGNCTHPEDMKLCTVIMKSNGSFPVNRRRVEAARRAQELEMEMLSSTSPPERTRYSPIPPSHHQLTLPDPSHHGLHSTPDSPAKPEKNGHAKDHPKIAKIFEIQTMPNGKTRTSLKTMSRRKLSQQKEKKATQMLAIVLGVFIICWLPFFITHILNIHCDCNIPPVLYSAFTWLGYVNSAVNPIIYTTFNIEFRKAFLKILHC
In short: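 Test compounds at 1 μM or lower (1% DMSO vehicle) incubated with 0.16 nM [3H]Spiperone for 120 min at 25 °C; nonspecific binding defined with 10 μM haloperidol. Filtration and counting of bound radioligand; values given as percent inhibition of specific binding.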

SMILES | inhibition at 0.1 µM [1] [%] | inhibition at 0.1 µM [2] [%] | inhibition at 0.1 µM [3] [%] | inhibition at 0.1 µM [4] [%] | inhibition at 1 µM [5] [%]
COc1ccc([C@](C)(O)Cn2c3c(c4cc(C)ccc42)CN(C)CC3)cc1 [Compound 1-20, (S)-1-(2,8-Dimethyl-3,4-dihydro-1H-pyrido[4,3-b]indol-5(2H)-yl)-2-(4-methoxyphenyl)propan-2-ol] | 22 | 28 | 91 |  | 
CC[C@](O)(Cn1c2c(c3cc(C)ccc31)CN(C)CC2)c1ccc(F)cc1 [Compound 1-60, (R)-1-(2,8-Dimethyl-3,4-dihydro-1H-pyrido[4,3-b]indol-5(2H)-yl)-2-(4-fluorophenyl)butan-2-ol] | 13 | 9 | 67 | 10 | -14
CCCC[C@](O)(Cn1c2c(c3cc(Cl)ccc31)CN(C)CC2)c1ccc(F)cc1 [Compound 1-61, (R)-1-(8-Chloro-2-methyl-3,4-dihydro-1H-pyrido[4,3-b]indol-5(2H)-yl)-2-(4-fluorophenyl)hexan-2-ol] | 14 | 11 | 81 | -7 | 14
CC[C@@](O)(Cn1c2c(c3cc(C)ccc31)CN(C)CC2)c1ccncc1 [Compound 1-62, (S)-1-(2,8-Dimethyl-3,4-dihydro-1H-pyrido[4,3-b]indol-5(2H)-yl)-2-(pyridine-4-yl)butan-2-ol] | 6 | -5 | 43 | 3 | 9
CC[C@](O)(Cn1c2c(c3cc(C)ccc31)CN(C)CC2)c1ccncc1 [Compound 1-63, (R)-1-(2,8-Dimethyl-3,4-dihydro-1H-pyrido[4,3-b]indol-5(2H)-yl)-2-(pyridine-4-yl)butan-2-ol] | -13 | 4 | 21 | 18 | 14
Cc1ccc2c(c1)c1c(n2CCc2ccc(C)nc2)CCN(CC(F)(F)F)C1 [Compound 1-65, 8-methyl-5-(2-(6-methylpyridin-3-yl)ethyl)-2-(2,2,2-trifluoroethyl)-2,3,4,5-tetrahydro-1H-pyrido[4,3-b]indole] | 4 | -1 | -10 | 11 | 12
